The subject of one experiment is P. mirabilis. The experiment can be described thus: Growth curve of overexpressing P. mirabilis. It counts as cell-based. Conditions: ENO WT or mutant-overexpressing P. mirabilis, OD600, 37°C.
For the next experiment, the system named is CobB. Description: LC-MS detection of deacylation of gpmA peptides by CobB. It counts as biochemical, P. mirabilis.
Another experiment deals with recombinant ENO. Format: biochemical, P. mirabilis. Conditions: NAM 10 mM with CobB and NAD^+, 25°C, 10 hours, Western blotting.
A further experiment relates to R58M CobB. The experiment can be described thus: ITC affinity of Khib peptide with R58M CobB. Format: binding, P. mirabilis. Conditions: 37°C.
For the next experiment, the system named is WT CobB. Description: De-2-hydroxyisobutyrylation kinetics by MALDI-TOF MS, WT CobB. Format: biochemical, P. mirabilis.
In the next experiment the test system is Y55F CobB. Description: De-2-hydroxyisobutyrylation kinetics by MALDI-TOF MS, Y55F CobB. It counts as biochemical, P. mirabilis.
Another experiment has as its system R58M mutant CobB. The experiment can be described thus: LC-MS detection of deacylation of gpmA peptides by R58M mutant CobB. Conditions: 50 μM peptide, 1 μM CobB, 1 mM NAD^+, pH 8.5, 37°C, 2 hours. It counts as biochemical, P. mirabilis.
The target of another experiment is R58M CobB (P. mirabilis). The experiment can be described thus: ITC. A general note: ITC needs no label: the signal is the heat of the interaction.
The target of experiment [1] is recombinant CobB (WT) (P. mirabilis). The experiment can be described thus: ITC.
The next experiment has as its target Y55F CobB (P. mirabilis). Description: ITC.
The mark [2] stands for this setting: Km for peptide, MALDI-TOF MS, 1 mM NAD^+, pH 8.5, 37°C, 2 min.
Where [3] appears, read: MALDI-TOF MS, 1 mM NAD^+, pH 8.5, 37°C, 2 min, 2-285 μM peptide.

Ends that are not written are not given here. * marks the point of attachment. Isobutyryl(2-OH) = CC(C)(O)C(=O)*

As to “ENO: enolase of P. mirabilis, His-tagged fusion protein”, the growth rate entry with P. mirabilis is “faster than that of mutated ENO-overexpressing P. mirabilis”.

Consider `NC(=O)c1cccnc1` [NAM, nicotinamide], for which, in the experiment on CobB (NAM 10 mM), the “inhibitory effect on removal of Khib relative to other acyl groups” value is “greatest inhibitory effect on Khib” and the “inhibitory effect on removal of Ksucc relative to other acyl groups” value was “least effect on Ksucc”. The “inhibition of de-2-hydroxyisobutyrylation reaction” value in the experiment on CobB (NAM 10 mM, 50 μM peptide, 1 μM CobB) is recorded as “inhibited efficiently”. Moreover, in the experiment on recombinant ENO, the “change of modifications of ENO with NAD^+ and NAM” value is “no significant change in the modifications of ENO”.

In the case of YGDEQVK(hib)QWR, in the experiment on CobB (50 μM peptide, 1 μM CobB, 1 mM NAD^+, pH 8.5, 37°C, 2 hours), the “hydrolysis by CobB in the presence of NAD^+” value is on record as “efficiently catalyzed the hydrolysis”. In the experiment with CobB (50 μM peptide, 1 μM CobB, without NAD^+), the “de-2-hydroxyisobutyrylated peptide without NAD^+” value was “not detected”. Also, in the experiment on R58M CobB, the “change of affinity of R58M CobB compared with WT CobB” value is on record as “significantly decreased eight times”. Also, the kcat/Km with WT CobB stood at 17000 s⁻¹ µM⁻¹; in the experiment on Y55F CobB, 8300 s⁻¹ µM⁻¹. Further, the Km in the experiment on WT CobB (setting [2]) was 13.3 ± 1.6 µM; with Y55F CobB (setting [2]), 12.2 ± 2 µM. The kcat in the experiment on WT CobB (setting [3]) was determined as 0.225 ± 0.011 s⁻¹; in the experiment with Y55F CobB (setting [3]), 0.101 ± 0.006 s⁻¹. The “deacylated peptide after treatment with R58M mutant” value with R58M mutant CobB was “not detectable”.

Take ENO-K326Q/K343T: in the experiment on P. mirabilis, the growth rate result is on record as “the lowest”.

Turning to YGDEQVK(Isobutyryl(2-OH))QWR [2-hydroxyisobutyrylated peptide [YGDEQVK(hib)QWR]], the Kd was found to be 15.9 µM in the experiment with R58M CobB (P. mirabilis), 2030 nM in experiment [1] and 2340 nM with Y55F CobB (P. mirabilis).

A word on the kcat/Km: it is the turnover number divided by the Michaelis constant. A word on the Km: it is the concentration of substrate that gives half-maximal velocity. The term kcat denotes the maximal rate divided by the concentration of active sites. For orientation: Kd means the constant that tells how readily two partners part at equilibrium.
